Laboratory results from patent US10940155B2, “Oral quetiapine suspension formulations with extended shelf life and enhanced bioavailability” (TLC THERAPEUTICS, LLC, priority 2017, dated 2021).
Where a name gives a salt, the structure may show the parent alone. Read-outs that look alike come from different tables or passages of the source.

Assays:
[1] = due to extensive first-pass metabolism; cited from earlier work

## OCCOCCN1CCN(C2=Nc3ccccc3Sc3ccccc32)CC1 [quetiapine fumarate, 2-[2-(4-dibenzo [b,f][1,4]thiazepin-11-yl-1-piperazinyl)ethoxy]-ethanol fumarate (2:1)]
pH 2
  solubility: 1.499 g/5 ml
pH 3
  solubility: 952.1 mg/5 ml
[1]
  oral bioavailability: poor
